Results as given in the NIST ThermoML archive (doi:10.1021/je0601513).

Experiment: xn = mol fraction of the nth substance listed
Conditions: 101 kPa, Liquid; for viscosity: Capillary tube (Ostwald / Ubbelohde) method

C[S+](C)[O-] [dimethyl sulfoxide] + CCCO
Conditions | mass density [kg/m3] | viscosity [mPa·s]
288.15 K, x1 = 0.0533 | 822.73 | 2.251
288.15 K, x1 = 0.0938 | 834.33 | 2.1
288.15 K, x1 = 0.1708 | 856.51 | 1.937
288.15 K, x1 = 0.2592 | 882.15 | 1.835
288.15 K, x1 = 0.346 | 907.54 | 1.81
288.15 K, x1 = 0.4294 | 932.12 | 1.819
288.15 K, x1 = 0.5115 | 956.49 | 1.864
288.15 K, x1 = 0.5981 | 982.38 | 1.927
288.15 K, x1 = 0.6853 | 1008.66 | 1.999
288.15 K, x1 = 0.7596 | 1031.23 | 2.086
288.15 K, x1 = 0.8438 | 1057.01 | 2.206
288.15 K, x1 = 0.9368 | 1085.71 | 2.348
298.15 K, x1 = 0.0554 | 815.18 | 1.799
298.15 K, x1 = 0.1366 | 838.3 | 1.635
298.15 K, x1 = 0.22 | 862.21 | 1.522
298.15 K, x1 = 0.2987 | 884.95 | 1.486
298.15 K, x1 = 0.4289 | 922.94 | 1.487
298.15 K, x1 = 0.5022 | 944.55 | 1.517
298.15 K, x1 = 0.5992 | 973.37 | 1.575
298.15 K, x1 = 0.677 | 996.69 | 1.633
298.15 K, x1 = 0.7656 | 1023.43 | 1.71
298.15 K, x1 = 0.8358 | 1044.81 | 1.786
298.15 K, x1 = 0.9181 | 1070.04 | 1.881
298.15 K, x1 = 0.9646 | 1084.38 | 1.942
308.15 K, x1 = 0.0537 | 806.44 | 1.439
308.15 K, x1 = 0.1336 | 828.96 | 1.319
308.15 K, x1 = 0.2147 | 852.03 | 1.264
308.15 K, x1 = 0.2987 | 876.11 | 1.237
308.15 K, x1 = 0.3876 | 901.81 | 1.243
308.15 K, x1 = 0.4707 | 926.08 | 1.265
308.15 K, x1 = 0.5552 | 950.93 | 1.296
308.15 K, x1 = 0.6418 | 976.65 | 1.343
308.15 K, x1 = 0.7191 | 999.78 | 1.401
308.15 K, x1 = 0.7998 | 1024.11 | 1.474
308.15 K, x1 = 0.877 | 1047.58 | 1.545
308.15 K, x1 = 0.965 | 1074.53 | 1.621
